pIC50: −log10 of the molar value. Where only a bound is given, the exact number is not on record here.

The nature of data set [1]: Liver microsome stability. It is filed as in vitro ADME, rat. Conditions: amount of substrate remaining; compound 1 μM, 30 minutes, 37° C., NADPH. Summed up: (§1)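 Human, dog, rat and mouse liver microsomes (0.25 mg/mL) with 1 μM compound in 0.1 M phosphate buffer pH 7.4, preincubated 5 min at 37° C, then incubated 30 min at 37° C with NADPH-generating system. Reaction stopped with acetonitrile containing internal standard; remaining parent quantified by LC-MS/MS.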
In general terms: Liver microsomes are vesicles of endoplasmic reticulum, rich in cytochrome P450 enzymes.

Data set [2] is described as follows: Liver microsome stability. It is filed as in vitro ADME, mouse. The settings on record: amount of substrate remaining; compound 1 μM, 30 minutes, 37° C., NADPH. Summed up: as §1
In a further data set the target is T1, tau protein (Homo sapiens, UniProt P10636).
T1 construct: fused on or other part: Split fluorescent-protein halves for BiFC are fused to tau; In the published tau-BiFC line these are Venus VN173 and VC155
Description: Tau-BiFC cell model: inhibition of tau protein aggregation. It is filed as cell-based. Summed up:
(§2)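 Aggregation was induced by 30 μM Forskolin co-applied with test compound for 48 h, with screening at 1, 3, 10 μM and dose-response at 0.03–30 μM. Nuclei were stained with Hoechst (2 μg/mL) and counted against Forskolin-only wells for cytotoxicity. Inhibition came from BiFC fluorescence relative to Forskolin-only versus untreated cells, with IC50 by nonlinear regression.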

Data set [3] can be described thus: Liver microsome stability. It is filed as in vitro ADME, dog. Conditions: amount of substrate remaining; compound 1 μM, 30 minutes, 37° C., NADPH. The method, then: The stability of liver microsomes due to the compounds prepared according to Examples 1 to 175 was confirmed. Specifically, four types of liver microsomes (human, dog, rat, and mouse, each 0.25 mg/mL), a 0.1 M phosphate buffer solution (pH 7.4), and each of the compounds at a concentration of 1 μM were mixed and pre-cultured at 37° C. for 5 minutes and further cultured at 37° C. for 30 minutes together with an NADPH generation system solution added thereto. Thereafter, the reaction was terminated by adding an acetonitrile solution containing an internal standard material (chloropropamide) and centrifuged for 5 minutes (14,000 rpm, 4° C.), and then a supernatant was injected into an LC-MS/MS system for analysis of substrate drugs to thereby evaluate metabolic stability due to 8 types of compounds.
The amount of the substrate remaining after the reaction was analyzed using the Shimadzu Nexera XR system and TSQ Vantage (Thermo). In an HPLC column, Kinetex XB-C18 (2.1 mm×100 mm, particle size of 2.6 μm; Phenomenex, USA) was used, and mobile phases were (A) distilled water containing 0.1% formic acid and (B) acetonitrile containing 0.1% formic acid. Analyst software (version 1.6.3) and Xcalibur (version 1.6.1) were used for data analysis.

The next data set addresses T2, CYP2C9 (Homo sapiens, UniProt P11712).
T2 construct: human liver microsomes (0.25 mg/mL); from tissue; host or cells: human liver microsomes
Description: Inhibitory effect on CYP coenzyme activity, human liver microsomes. It is filed as in vitro ADME. Conditions: compound 10 μM; human liver microsomes 0.25 mg/mL; substrate diclofenac; 15 minutes. Summed up: (§3)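 Read-out is LC-MS/MS (MRM) quantification of marker metabolites, compared between 10 μM compound and vehicle (0 μM). Microsomes (0.25 mg/mL, pH 7.4 phosphate) carried a five-probe cocktail including diclofenac 10 μM, S-mephenytoin 100 μM, dextromethorphan 5 μM and midazolam 2.5 μM, and were incubated 15 min at 37 °C with NADPH.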

The target of the next data set is T3, CYP1A2 (Homo sapiens, UniProt P05177).
T3 construct: human liver microsomes (0.25 mg/mL); from tissue; host or cells: human liver microsomes
T3 sequence (P05177 1-516): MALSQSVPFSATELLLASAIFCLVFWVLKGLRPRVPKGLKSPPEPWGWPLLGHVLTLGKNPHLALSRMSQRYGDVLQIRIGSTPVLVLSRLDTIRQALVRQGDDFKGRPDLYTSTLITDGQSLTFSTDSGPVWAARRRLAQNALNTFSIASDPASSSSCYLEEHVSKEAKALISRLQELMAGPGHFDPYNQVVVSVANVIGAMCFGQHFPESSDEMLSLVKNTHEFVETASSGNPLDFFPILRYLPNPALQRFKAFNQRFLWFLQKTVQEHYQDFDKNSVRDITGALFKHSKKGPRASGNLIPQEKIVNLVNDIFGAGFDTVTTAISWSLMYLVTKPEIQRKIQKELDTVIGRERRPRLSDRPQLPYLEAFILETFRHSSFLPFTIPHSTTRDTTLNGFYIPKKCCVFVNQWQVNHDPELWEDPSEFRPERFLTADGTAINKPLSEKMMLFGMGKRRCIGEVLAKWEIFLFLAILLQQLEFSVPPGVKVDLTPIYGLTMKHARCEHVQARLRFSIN
The description is as above. It is filed as in vitro ADME. The settings on record: compound 10 μM; human liver microsomes 0.25 mg/mL; substrate phenacetin; 15 minutes. Summed up: as §3

For another data set, the target named is T4, CYP2D6 (Homo sapiens, UniProt P10635).
T4 construct: human liver microsomes (0.25 mg/mL); from tissue; host or cells: human liver microsomes
The data set is described as above. It is filed as in vitro ADME. Conditions: compound 10 μM; human liver microsomes 0.25 mg/mL; substrate dextromethorphan; 15 minutes. Summed up: as §3

The next data set deals with T5, CYP2C19 (Homo sapiens, UniProt P33261).
T5 construct: human liver microsomes (0.25 mg/mL); from tissue; host or cells: human liver microsomes
Described as above. It is filed as in vitro ADME. The settings on record: compound 10 μM; human liver microsomes 0.25 mg/mL; substrate S-mephenytoin; 15 minutes. Summed up: as §3

For another data set, the target named is T6, CYP3A4 (Homo sapiens, UniProt P08684).
T6 construct: human liver microsomes (0.25 mg/mL); from tissue; host or cells: human liver microsomes
The data set is described as above. It is filed as in vitro ADME. Conditions: compound 10 μM; human liver microsomes 0.25 mg/mL; substrate midazolam; 15 minutes. Summed up: as §3

A short description of data set [4]: Liver microsome stability. It is filed as in vitro ADME, human. The settings on record: amount of substrate remaining; compound 1 μM, 30 minutes, 37° C., NADPH. Summed up:
as §1

The subject of another data set is Tau-BiFC cells. Description: Cell viability (cytotoxicity) in tau-BiFC cells, count of stained nuclei. It is filed as cell-based. Conditions: compound 10 μM; Forskolin-only group = 100% cell viability. Summed up:
as §2

T1 sequence (P10636 2-441 isoform P10636-8 limits assumed): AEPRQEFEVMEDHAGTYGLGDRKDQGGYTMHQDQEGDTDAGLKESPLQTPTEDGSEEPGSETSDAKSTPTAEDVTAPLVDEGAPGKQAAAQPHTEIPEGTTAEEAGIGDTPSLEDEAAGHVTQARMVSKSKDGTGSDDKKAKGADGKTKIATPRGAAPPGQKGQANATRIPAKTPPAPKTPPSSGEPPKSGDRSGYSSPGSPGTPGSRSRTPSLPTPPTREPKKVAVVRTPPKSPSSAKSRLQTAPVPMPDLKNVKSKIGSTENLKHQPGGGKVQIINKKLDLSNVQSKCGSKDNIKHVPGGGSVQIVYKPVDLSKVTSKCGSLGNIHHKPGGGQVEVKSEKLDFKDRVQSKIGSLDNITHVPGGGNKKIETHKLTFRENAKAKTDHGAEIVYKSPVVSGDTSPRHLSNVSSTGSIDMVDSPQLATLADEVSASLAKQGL
T2 sequence (P11712 whole entry): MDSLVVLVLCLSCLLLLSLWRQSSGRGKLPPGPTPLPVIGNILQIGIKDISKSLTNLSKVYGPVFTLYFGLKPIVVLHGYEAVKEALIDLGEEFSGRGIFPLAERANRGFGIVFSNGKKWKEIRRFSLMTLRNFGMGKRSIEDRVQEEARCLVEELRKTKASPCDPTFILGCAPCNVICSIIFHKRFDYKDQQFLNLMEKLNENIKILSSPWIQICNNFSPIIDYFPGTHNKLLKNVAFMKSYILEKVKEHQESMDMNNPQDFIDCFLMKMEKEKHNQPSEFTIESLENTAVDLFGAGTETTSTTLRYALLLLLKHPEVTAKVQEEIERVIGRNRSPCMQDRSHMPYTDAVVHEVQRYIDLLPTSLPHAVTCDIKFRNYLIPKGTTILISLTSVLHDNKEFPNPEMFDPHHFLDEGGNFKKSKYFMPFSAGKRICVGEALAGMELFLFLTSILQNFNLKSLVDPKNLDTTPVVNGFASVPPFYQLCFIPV
T5 sequence (P33261 whole entry): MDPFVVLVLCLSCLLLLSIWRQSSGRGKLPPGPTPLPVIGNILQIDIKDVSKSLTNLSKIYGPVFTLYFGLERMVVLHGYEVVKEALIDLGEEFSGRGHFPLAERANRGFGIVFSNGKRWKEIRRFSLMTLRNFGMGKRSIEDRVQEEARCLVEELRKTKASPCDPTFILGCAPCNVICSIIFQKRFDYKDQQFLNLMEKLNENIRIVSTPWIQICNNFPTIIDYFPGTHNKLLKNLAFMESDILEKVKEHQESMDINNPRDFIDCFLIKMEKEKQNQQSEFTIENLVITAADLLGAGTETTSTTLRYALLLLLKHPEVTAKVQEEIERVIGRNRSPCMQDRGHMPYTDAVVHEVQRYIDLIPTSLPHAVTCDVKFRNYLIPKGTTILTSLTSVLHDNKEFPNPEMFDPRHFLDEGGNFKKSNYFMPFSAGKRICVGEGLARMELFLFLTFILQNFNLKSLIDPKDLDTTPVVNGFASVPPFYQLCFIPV
T4 sequence (P10635 whole entry): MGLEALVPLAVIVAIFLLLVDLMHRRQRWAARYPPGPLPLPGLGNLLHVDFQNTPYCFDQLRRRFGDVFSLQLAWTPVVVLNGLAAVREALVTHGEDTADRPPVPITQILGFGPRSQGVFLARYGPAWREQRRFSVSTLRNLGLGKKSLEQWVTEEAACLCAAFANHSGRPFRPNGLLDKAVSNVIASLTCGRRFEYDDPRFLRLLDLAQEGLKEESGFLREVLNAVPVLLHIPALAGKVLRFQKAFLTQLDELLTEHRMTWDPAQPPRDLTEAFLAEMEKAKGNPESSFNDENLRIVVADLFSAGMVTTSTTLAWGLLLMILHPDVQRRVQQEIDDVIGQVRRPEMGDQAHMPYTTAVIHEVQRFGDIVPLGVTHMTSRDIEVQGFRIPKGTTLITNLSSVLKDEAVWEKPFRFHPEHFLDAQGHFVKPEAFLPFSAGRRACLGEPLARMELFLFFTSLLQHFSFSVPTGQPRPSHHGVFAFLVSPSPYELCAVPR
T6 sequence (P08684 whole entry): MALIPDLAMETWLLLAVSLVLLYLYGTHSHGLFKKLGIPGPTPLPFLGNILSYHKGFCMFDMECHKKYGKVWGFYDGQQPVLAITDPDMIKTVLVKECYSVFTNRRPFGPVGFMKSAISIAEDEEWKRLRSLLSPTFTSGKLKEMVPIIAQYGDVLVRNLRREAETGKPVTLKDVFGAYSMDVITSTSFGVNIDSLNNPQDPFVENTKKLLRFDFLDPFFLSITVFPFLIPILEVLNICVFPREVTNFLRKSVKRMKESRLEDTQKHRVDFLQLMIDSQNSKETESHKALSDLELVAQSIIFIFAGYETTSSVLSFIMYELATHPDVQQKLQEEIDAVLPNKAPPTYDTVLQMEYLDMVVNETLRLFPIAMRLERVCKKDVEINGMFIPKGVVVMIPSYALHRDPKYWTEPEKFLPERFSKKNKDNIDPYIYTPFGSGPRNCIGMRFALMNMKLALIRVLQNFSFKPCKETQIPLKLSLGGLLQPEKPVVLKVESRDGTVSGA

As a reminder, the pIC50 is the IC50 on a negative log10 scale, so that one unit is a factor of ten. A lower pIC50 goes with a high IC50. Consider `Cc1cncc(NC(=O)c2ccc(NN=C(C#N)C#N)cc2)n1` [Compound 46, (4-(6-methylpyrazin-2-ylcarbamoyl)phenyl)carbonohydrazonoyl dicyanide], for which the “Rat (%)” value in [1] is listed as 86.3%. Further, the “Mouse (%)” value in [2] was above 100%. In addition, at tau protein (48 h, compound 10 μM, BiFC fluorescence, Forskolin-only group = 100% tau protein-aggregated state, read-out: Response (% @10 μM)), the remaining activity at 10 µM is 0%. The pIC50 at tau protein (Tau BiFC in cells, with Forskolin 30 μM, 48 hours) was 6.07. The “Dog (%)” value in [3] was above 100%. Besides, on CYP2C9, the CYP2C9 was 70.4. The molecule further registered a CYP1A2 on CYP1A2 of 97.8. The same molecule yielded a CYP2D6 at CYP2D6 above 100. The molecule further showed a CYP2C19 on CYP2C19 of 83.1. In addition, the CYP3A4 on CYP3A4 was 85.5. Besides, the “Human (%)” value in data set [4] is on record as above 100%. Also, in the data set with Tau-BiFC cells, the “Cell viability (% @10 μM)” value is 155%.

The values are drawn from US12649723B2, “Carbonohydrazonoyl dicyanide compounds comprising 2 or more aryl or heteroaryl connected via linker and use thereof” (KOREA INSTITUTE OF SCIENCE AND TECHNOLOGY, priority 2020, dated 2026).
